{"source": "patent US20250127759A1", "about": "“METHODS AND DOSING REGIMENS COMPRISING A CDK2 INHIBITOR FOR THE TREATMENT OF CANCER” (PFIZER INC., priority 2021, published 2025)", "key": {"[1]": {"system": "NCI-H526 Model", "experiment": "In vivo efficacy, NCI-H526 small cell lung cancer model", "set-up": "species or system mice", "conditions": "Day 15", "description": "(§1) Female NSG (Jackson Lab) or Nu/nu (CRL) were subcutaneously implanted with tumor cells or fragments (8 mm^3 to 27 mm^3) into the dorsal region. For the MCF7 study, mice were supplemented with estrogen (sc implanted, 17β-estradiol, 0.36 mg, 90-day release pellet, Innovative Research of America, cat no. NE-121).\nTo establish the NCI-H526 model, tumor cells (4×10^6 cells/mouse with 50% Cultrex® Basement Membrane Matrix) were subcutaneously implanted in female Nu/nu mice. […] PF-07104091, Palbociclib at 10 mg/kg and CDK 2/4/6 inhibitor were administered (p.o.) BID (7 hr apart). TGI was assessed on Day 15 post first dose (or Day 20 post tumor cell implant)."}, "[2]": {"experiment": "Phase 1/2a study, safety profile", "format": "in vivo", "source_text": "DLTs will be assessed through Cycle 1 (28-day cycle with Day 29 laboratory assessments). For the purpose of dose escalation, the DLT observation period will be during the first cycle (28 days after the start of study treatment) in each participant. Severity of AEs will be graded according to Common Terminology Criteria for Adverse Events (CTCAE) version 5.0."}, "[3]": {"experiment": "In vivo efficacy, MCF7 breast cancer model", "conditions": "female, mouse, NSG mice, po, BID, read-out: maximum tolerated dose level", "description": "as §1\nThe MCF7 model was established by implanting donor tumor fragments into recipient mice. To establish the MCF7 donor mice, tumor cells (5×10^6 cells/mouse with 50% Cultrex® Basement Membrane Matrix) were subcutaneously implanted in female NSG mice. […] 150 mg/kg, po, BID is the maximum tolerated dose level in this model. PF 07104091 was administered (p.o.) BID (7 hr apart). TGI was assessed on Day 21 post first dose (or Day 42 post tumor fragment implant)."}, "[4]": {"system": "phosphorylation of Rb at Ser807/811", "experiment": "Modulation of pRb Ser807/811 in OVCAR3 cells", "format": "cell-based", "conditions": "Homo sapiens, OVCAR-3; enriched G1/S phase CCNE1-amplified OVCAR3 cells; mean; read-out: Modulation of pRB Serine 807/811 IC50", "description": "The cellular activity of PF-07104091 was evaluated by measuring phosphorylation of Rb at Ser807/811 following treatment of enriched G1/S phase CCNE1-amplified OVCAR3 ovarian carcinoma cells."}, "[5]": {"experiment": "Predicted human pharmacokinetics for starting dose", "description": "(§2) The selection of the starting dose and regimen was based on the nonclinical toxicology and PK results in accordance with the ICH S9 Guidance. Results from nonclinical toxicity studies indicate the STD10 of PF-07104091 in mouse was 150 mg/kg after BID oral administration. The human equivalent dose for the STD10 in mouse is approximately 729 mg BID (assuming a body weight of 60 kg). Per ICH-S9 guidance, one-tenth of the STD10 can be considered the appropriate starting dose. Given the predicted human t % of approximately 4 hours, the starting dose has been selected to be 75 mg BID. The human AUC0-12 hr of PF-07104091 at the proposed starting oral dose of 75 mg BID is predicted to be ˜6.5% of the observed AUC0-12 hr at the STD10 in mouse (150 mg/kg BID) and ˜80% of the observed AUC0-12 hr at the HNSTD in dog (15 mg/kg BID)."}, "[6]": {"system": "OVCAR3 cells", "experiment": "Cell cycle distribution and DNA synthesis, OVCAR3", "format": "cell-based", "conditions": "72-hour treatment with 300 nM", "description": "(§3) The effect of PF-07104091 on cell cycle distribution and DNA synthesis was determined following 72-hour treatment with 300 nM PF-07104091."}, "[7]": {"system": "HCC1428", "experiment": "In vivo efficacy, HCC1428 breast cancer model", "set-up": "species or system mice", "conditions": "Day 42, 150 mg/kg BID PO, 150 mg/kg", "description": "The HCC1428 model was established by implanting passage 4 tumor fragments into recipient mice. To establish the HCC1428 donor mice, tumor cells (5×10^6 cell/mouse with 50% Cultrex® Basement Membrane Matrix) were subcutaneously implanted in female NSG mice. […] All mice received treatment continuously until Day 42. TGI was assessed on Day 42 post first dose."}, "[8]": {"experiment": "Nonclinical toxicity study, mouse", "format": "in vivo", "description": "as §2"}, "[9]": {"experiment": "Nonclinical toxicity study, dog", "format": "in vivo", "description": "as §2"}, "[10]": {"system": "NCI-H526 cells", "experiment": "Cell cycle distribution and DNA synthesis, NCI-H526", "format": "cell-based", "conditions": "72-hour treatment with 300 nM", "description": "as §3"}, "[11]": {"system": "T-47D Cells", "experiment": "Combination cell proliferation assay, T47D", "format": "cell-based, human", "description": "The combination effects of PF-07104091 with palbociclib were evaluated in a cell proliferation assay with MCF7 and T47D BC cell lines. […] Drug combinations were analyzed using the Dose Equivalence Principle, and the Loewe Volume score. When modeling synergy using the Dose Equivalence Principle, the Loewe Volume score for the combination compounds should be greater than the compound self-cross controls, and the Combination Index score for the combination compounds should be less than compound self-cross controls. […] Furthermore, the isobolograms set to an anti-proliferation threshold at 70% confirm a synergistic response."}, "[12]": {"experiment": "In vivo efficacy, OVCAR3 ovarian cancer tumor model", "conditions": "female, mouse, NSG mice, po, BID, read-out: maximum tolerated dose level", "description": "as §1\nTo establish the OVCAR3 model, tumor cells (5×10^6 cells/mouse with 50% Cultrex® Basement Membrane Matrix) were subcutaneously implanted in female NSG mice. […] PF-07104091 was administered (p.o.) BID (7 hr apart). All mice received treatment continuously for 21 days. TGI was assessed on Day 21 post first dose (or Day 66 post tumor cell implant)."}, "[13]": {"conditions": "75 mg to 500 mg BID, all cohorts, as of data cutoff"}}, "data": [{"compound": "COCc1cc(C(=O)Nc2cc([C@H]3CC[C@@H](OC(=O)NC(C)C)C3)[nH]n2)n(C)n1", "note": "[PF-07104091, (1R,3S)-3-[3-({[3-(methoxymethyl)-1-methyl-1H-pyrazol-5-yl]carbonyl}amino)-1H-pyrazol-5-yl]cyclopentyl propan-2-ylcarbamate]", "values": [{"measurement": "TGI %", "setting": "[1]; 25 mg/kg BID PO", "value": 44, "unit": "%"}, {"measurement": "TGI %", "setting": "[1]; 75 mg/kg BID PO", "value": 45, "unit": "%"}, {"measurement": "DLTs related to PF-07104091 (number)", "setting": "[2]; [13]", "value": 15}, {"measurement": "SAEs related to PF-07104091 (number)", "setting": "[2]; [13]", "value": 21}, {"measurement": "deaths related to PF-07104091", "setting": "[2]; [13]", "value": "no deaths"}, {"measurement": "patients with at least one all-causality TEAE", "setting": "[2]; 70 out of 77 patients, across all doses", "value": 90.9, "unit": "%"}, {"measurement": "Grade 5 all-causality TEAEs (number)", "setting": "[2]; Dyspnoea at the 225 mg BID (Part A) dose", "value": "One"}, {"measurement": "Grade 3 or higher all-causality TEAE: anaemia", "setting": "[2]; across all doses", "value": 6.5, "unit": "%"}, {"measurement": "Grade 3 or higher all-causality TEAE: fatigue", "setting": "[2]; across all doses", "value": 10.4, "unit": "%"}, {"measurement": "Grade 3 or higher all-causality TEAE: hypokalaemia", "setting": "[2]; across all doses", "value": 5.2, "unit": "%"}, {"measurement": "Grade 3 or higher all-causality TEAE: nausea", "setting": "[2]; across all doses", "value": 7.8, "unit": "%"}, {"measurement": "Grade 3 or higher all-causality TEAE: neutrophil count decreased", "setting": "[2]; across all doses", "value": 23.4, "unit": "%"}, {"measurement": "Grade 3 or higher all-causality TEAE: white blood cell count decreased", "setting": "[2]; across all doses", "value": 14.3, "unit": "%"}, {"measurement": "all-causality TEAEs Grade 3 or higher", "setting": "[2]; across all doses", "value": 49.4, "unit": "%"}, {"measurement": "all-causality TEAE: anaemia", "setting": "[2]; across all doses, 77 patients", "value": 31.2, "unit": "%"}, {"measurement": "all-causality TEAE: decreased appetite", "setting": "[2]; across all doses, 77 patients", "value": 20.8, "unit": "%"}, {"measurement": "all-causality TEAE: diarrhoea", "setting": "[2]; across all doses, 77 patients", "value": 37.7, "unit": "%"}, {"measurement": "all-causality TEAE: fatigue", "setting": "[2]; across all doses, 77 patients", "value": 41.6, "unit": "%"}, {"measurement": "all-causality TEAE: nausea", "setting": "[2]; across all doses, 77 patients", "value": 68.8, "unit": "%"}, {"measurement": "all-causality TEAE: neutrophil count decreased", "setting": "[2]; across all doses, 77 patients", "value": 32.5, "unit": "%"}, {"measurement": "all-causality TEAE: vomiting", "setting": "[2]; across all doses, 77 patients", "value": 37.7, "unit": "%"}, {"measurement": "all-causality TEAE: white blood cell count decreased", "setting": "[2]; across all doses, 77 patients", "value": 23.4, "unit": "%"}, {"measurement": "patients who discontinued study treatment due to AEs", "setting": "[2]; all cohorts, as of data cutoff", "value": 4, "unit": "patients"}, {"measurement": "Grade 4 all-causality TEAE (number)", "setting": "[2]; neutrophil count decreased 500 mg BID (1A) and 75 mg BID (3/1) (1B), platelet count decreased 150 mg BID (1B), neutropenia 75 mg BID (1C)", "value": "Four"}, {"measurement": "MTD at 21 days", "setting": "[3]", "value": 150, "unit": "mg/kg"}, {"measurement": "IC50", "setting": "[4]", "value": 144, "unit": "nM"}, {"measurement": "predicted human AUC0-12 hr as % of observed AUC0-12 hr at the HNSTD in dog", "setting": "[5]; human 75 mg BID oral vs dog 15 mg/kg BID", "value": "~80", "unit": "%"}, {"measurement": "predicted human AUC0-12 hr as % of observed AUC0-12 hr at the STD10 in mouse", "setting": "[5]; human 75 mg BID oral vs mouse 150 mg/kg BID", "value": "~6.5", "unit": "%"}, {"measurement": "predicted human t %", "setting": "[5]; human, predicted", "value": "approximately 4 hours"}, {"measurement": "cell cycle arrest", "setting": "[6]", "value": "Significant G1 arrest"}, {"measurement": "S phase (cell cycle distribution)", "setting": "[6]; p≤0.05 versus vehicle", "value": "Significant S phase reduction"}, {"measurement": "TGI %", "setting": "[7]", "value": 95, "unit": "%"}, {"measurement": "human equivalent dose for the STD10 in mouse", "setting": "[8]; assuming a body weight of 60 kg", "value": "approximately 729 mg BID"}, {"measurement": "STD10", "setting": "[8]; mouse, BID oral administration", "value": 150, "unit": "mg/kg"}, {"measurement": "HNSTD", "setting": "[9]", "value": 15, "unit": "mg/kg BID"}, {"measurement": "cell cycle arrest", "setting": "[10]", "value": "significant G2/M arrest"}, {"measurement": "S phase (cell cycle distribution)", "setting": "[10]; p=0.057", "value": "trended towards significance"}, {"measurement": "Loewe Volume", "setting": "[11]", "value": 0.01}, {"measurement": "Best CI", "setting": "[11]; Best CI Level 70", "value": 0.95}, {"measurement": "MTD at 21 days", "setting": "[12]", "value": 175, "unit": "mg/kg"}]}]}
